Patent US8877707B2, “Inhibitors of HCV NS5A” (Presidio Pharmaceuticals, Inc., priority 2010, dated 2014)

What follows are compounds tested on HCV genotype 1b replicon in Huh 7 cells (assay: HCV replicon assay (1b_Huh-Luc/Neo-ET cell line, luciferase readout)). Settings: Hepatitis C virus, Huh-7; HCV 1b replicon; read-out: Inhibition of HCV genotype 1b.
Assay type: cell-based
Method in brief: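 Huh 7 cells carrying a bicistronic genotype 1b luciferase replicon were treated with compound in triplicate the day after plating and incubated 72 h. Luciferase activity expressed as % of untreated control; EC50 from a four-parameter logistic fit, repeated several times.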

`COC(=O)N[C@H](C(=O)N1CCC[C@H]1c1ncc(-c2ccc(-c3nc4cc(-c5cnc([C@@H]6CCCN6C(=O)[C@H](NC(=O)OC)c6ccccc6)[nH]5)ccc4s3)cc2)[nH]1)C(C)C` [compound 536] and `COC(=O)N[C@H](C(=O)N1CCC[C@H]1c1ncc(-c2ccc3nc(-c4ccc(-c5cnc([C@@H]6CCCN6C(=O)[C@H](NC(=O)OC)c6ccccc6)[nH]5)c(F)c4)ccc3c2)[nH]1)C(C)C` [compound 453] cannot be ordered by EC50: less than 1 nM for the first, less than 1 nM for the second.

`COC(=O)N[C@H](C(=O)N1CCC[C@H]1c1ncc(-c2ccc3nc(-c4ccc(-c5cnc([C@@H]6CCCN6C(=O)[C@H](NC(=O)OC)c6ccccc6)[nH]5)c(F)c4)ccc3c2)[nH]1)[C@@H](C)OC` [compound 460] and `COC(=O)N[C@@H](C)C(=O)N1CCC[C@H]1c1ncc(-c2ccc3cc(-c4ccc(-c5cnc([C@@H]6CCCN6C(=O)[C@H](NC(=O)OC)c6ccccc6)[nH]5)nn4)ccc3c2)[nH]1` [compound 499] cannot be ordered by EC50: less than 1 nM for the first, less than 1 nM for the second.

Compared with `COC(=O)N[C@H](C(=O)N1CCC[C@H]1C(=O)N[C@H](C)c1ccc(-c2ccc3cc(-c4cnc([C@@H]5CCCN5C(=O)[C@@H](NC(=O)OC)[C@@H](C)OC)[nH]4)ccc3c2)cc1)[C@@H](C)OC` [compound 562], `COC(=O)N[C@H](C(=O)N1CCC[C@H]1c1ncc(-c2ccc3cc(-c4ccc5nc([C@@H]6CCCN6C(=O)[C@@H](NC(=O)OC)[C@@H](C)OC)[nH]c5c4)ccc3c2)[nH]1)C(C)C` [compound 525] is lower in EC50: 10 to 999 nM for the first, less than 1 nM for the second.

`COC(=O)N[C@H](C(=O)N1CCN(C(C)=O)C[C@H]1c1ncc(-c2ccc(-c3ccc4cc(-c5cnc([C@@H]6CCCN6C(=O)[C@@H](NC(=O)OC)C6CCOCC6)[nH]5)ccc4n3)cc2)[nH]1)C(C)C` [compound 495] and `COC(=O)N[C@H](C(=O)N1CCN(C(=O)OC)C[C@H]1c1ncc(-c2ccc(-c3ccc4cc(-c5cnc([C@@H]6CCCN6C(=O)[C@H](NC(=O)OC)c6ccccc6)[nH]5)ccc4n3)cc2)[nH]1)C(C)C` [compound 471] cannot be ordered by EC50: less than 1 nM for the first, less than 1 nM for the second.

`COC(=O)N[C@@H](C(=O)N1CCC[C@H]1c1ncc(-c2ccc(-c3ccc4cc(-c5cnc([C@@H]6CCCN6C(=O)[C@H](NC(=O)OC6CCOCC6)c6ccccc6)[nH]5)ccc4n3)cc2F)[nH]1)c1ccccc1` [compound 474] and `COC(=O)N[C@H](C(=O)N1CCC[C@H]1c1nc2ccc(-c3ccc4cc(-c5ccc6nc([C@@H]7CCCN7C(=O)[C@@H](NC(=O)OC)C(C)C)[nH]c6c5)nnc4c3)cc2[nH]1)C(C)C` [compound 537] cannot be ordered by EC50: less than 1 nM for the first, less than 1 nM for the second.

Same assay, conditions: Hepatitis C virus; Table 1; genotype 1b replicon, Huh 7 cells, 72 h, luciferase; read-out: Inhibition of HCV genotype 1b

`COC(=O)N[C@@H](C(=O)N1CCC[C@H]1c1nc(-c2ccc3nc(C4CCC(c5cnc([C@@H]6CCCN6C(=O)[C@H](NC(=O)OC)c6ccccc6)[nH]5)CC4)ccc3c2)c[nH]1)c1ccccc1` (stereo partly shown) [compound 286] and `COC(=O)N[C@H](C(=O)N1CCC[C@H]1c1nc(-c2ccc3nc(-c4ccc(-c5cnc([C@@H]6CCCN6C(=O)[C@H](NC(=O)OC(C)(C)C)c6ccccc6)[nH]5)cc4)ccc3c2)c[nH]1)C(C)C` [compound 30] cannot be ordered by EC50: less than 1 nM for the first, less than 1 nM for the second.

First: COC(=O)N[C@H](C(=O)N1CCC[C@H]1c1ncc(-c2ccc3cc(-c4ccc5nc([C@@H]6CCCN6C(=O)[C@@H](NC(=O)OC)C6CCOCC6)[nH]c5c4)ncc3c2)[nH]1)C1CCOCC1 [compound 217]
Second: COC(=O)N[C@H](C(=O)N1CCC[C@H]1c1ncc(-c2ccc3cc(-c4ccc(-c5cnc([C@@H]6CCCN6C(=O)[C@H](NC(=O)OC)c6ccccc6)[nH]5)c(F)c4)ncc3c2)[nH]1)C1CCOCC1 [compound 127]
The EC50 of the first is higher: 1 to 9.9 nM for the first, less than 1 nM for the second.

`COC(=O)N[C@H](C(=O)N1CCC[C@H]1c1ncc(-c2ccc(-c3ccc4cc(-c5cnc([C@@H]6CCCN6C(=O)[C@H](NC(=O)OC)c6ccccc6)[nH]5)ccc4n3)c(F)c2)[nH]1)C(C)C` [compound 119] and `COC(=O)N[C@H](C(=O)N1CCC[C@H]1c1ncc(-c2ccc(-c3ccc4cc(-c5cnc([C@@H]6CCCN6C(=O)[C@H](NC(=O)OC(C)(C)C)c6ccccc6)[nH]5)ccc4n3)c(F)c2)[nH]1)C(C)C` [compound 122] cannot be ordered by EC50: less than 1 nM for the first, less than 1 nM for the second.

`COC(=O)N[C@H](C(=O)N1CCC[C@H]1c1nc(-c2ccc3nc(-c4ccc(-c5cnc([C@@H]6CCCN6C(=O)[C@@H](NC(=O)OC)C(C)C)[nH]5)cc4)ncc3c2)c[nH]1)C(C)C` [compound 17] and `COC(=O)N[C@H](C(=O)N1CCC[C@H]1c1ncc(-c2ccc3nc(-c4ccc5nc([C@@H]6CCCN6C(=O)[C@@H](NC(=O)OC)C(C)C)[nH]c5c4)ccc3c2)[nH]1)C(C)C` [compound 193] cannot be ordered by EC50: less than 1 nM for the first, less than 1 nM for the second.

`COC(=O)N[C@H](C(=O)N1CCC[C@H]1c1ncc(-c2ccc(-c3ccc4cc(-c5c[nH]c([C@@H]6CCCN6C(=O)[C@H](NC(=O)OC)c6ccccc6)n5)cnc4c3)c(F)c2)[nH]1)C(C)C` [compound 58] and `COC(=O)N[C@H](C(=O)N1CCC[C@H]1c1nc(-c2cnc3cc(-c4ccc(-c5cnc([C@@H]6CCCN6C(=O)[C@H](NC(=O)OC6CCOCC6)c6ccccc6)[nH]5)cc4)ccc3c2)c[nH]1)C(C)C` [compound 88] cannot be ordered by EC50: less than 1 nM for the first, less than 1 nM for the second.

`COC(=O)N[C@H](C(=O)N1CCC[C@H]1c1ncc(-c2ccc(-c3ccc4cc(-c5cnc([C@@H]6CCCN6C(=O)[C@H](NC(=O)OC)C6C=CCC=C6)[nH]5)ccc4n3)c(F)c2)[nH]1)C1CCOCC1` [compound 163] and `COC(=O)N[C@H](C(=O)N1C[C@H](O)C[C@H]1c1ncc(-c2ccc(-c3ccc4cc(-c5cnc([C@@H]6CCCN6C(=O)[C@@H](NC(=O)OC)C6CCOCC6)[nH]5)ccc4n3)cc2)[nH]1)C(C)C` [compound 147] cannot be ordered by EC50: less than 1 nM for the first, less than 1 nM for the second.

`CCC(CC)[C@H](NC(=O)OC)C(=O)N1CCC[C@H]1c1ncc(-c2ccc(-c3ccc4cc(-c5cnc([C@@H]6CCCN6C(=O)[C@@H](NC(=O)OC)C(CC)CC)[nH]5)ccc4c3)cc2)[nH]1` [compound 171] and `CC[C@@H](C)[C@H](NC(=O)OC)C(=O)N1CCC[C@H]1c1ncc(-c2ccc(-c3ccc4cc(-c5cnc([C@@H]6CCCN6C(=O)[C@@H](NC(=O)OC)[C@H](C)CC)[nH]5)ccc4c3)cc2)[nH]1` [compound 142] cannot be ordered by EC50: less than 1 nM for the first, less than 1 nM for the second.

`COC(=O)N[C@H](C(=O)N1CCC[C@H]1c1ncc(-c2ccc(-c3cc4ccc(-c5cnc([C@@H]6CCCN6C(=O)[C@@H](NC(=O)OC)C(C)C)[nH]5)cc4cn3)c(F)c2)[nH]1)C(C)C` [compound 150] and `COC(=O)N[C@H](C(=O)N1CCC[C@H]1c1ncc(-c2cccc(-c3cccc4cc(-c5cnc([C@@H]6CCCN6C(=O)[C@@H](NC(=O)OC)C(C)C)[nH]5)ccc34)c2)[nH]1)C(C)C` [compound 130] cannot be ordered by EC50: less than 1 nM for the first, less than 1 nM for the second.

Compared with `CN(C)[C@@H](C(=O)N1CCC[C@H]1c1nc(-c2ccc3nc(C45CCC(c6cnc([C@@H]7CCCN7C(=O)[C@@H](c7ccccc7)N(C)C)[nH]6)(CC4)CC5)ccc3c2)c[nH]1)c1ccccc1` [compound 264], `COC(=O)N[C@@H](C(=O)N1CCC[C@H]1c1ncc(-c2ccc(-c3nc4cc(-c5cnc([C@@H]6CCCN6C(=O)[C@H](NC(=O)OC)c6ccccc6)[nH]5)ccc4n3C)cc2)[nH]1)c1ccccc1` [compound 233] is lower in EC50: 1 to 9.9 nM for the first, less than 1 nM for the second.

`COC(=O)N[C@H](C(=O)N1CCC[C@H]1c1ncc(-c2ccc(-c3nc4ccc(-c5cnc([C@@H]6CCCN6C(=O)[C@@H](NC(=O)OC)C(C)C)[nH]5)cc4o3)cc2)[nH]1)C(C)C` [compound 234] and `COC(=O)N[C@H](C(=O)N1CCC[C@H]1c1ncc(-c2ccc(-c3nc4cc(-c5cnc([C@@H]6CCCN6C(=O)[C@@H](NC(=O)OC)[C@@H](C)OC)[nH]5)ccc4o3)cc2)[nH]1)[C@@H](C)OC` [compound 238] cannot be ordered by EC50: less than 1 nM for the first, less than 1 nM for the second.

`COC(=O)N[C@H](C(=O)N1CCOC[C@H]1c1ncc(-c2ccc3cc(-c4ccc(-c5cnc([C@@H]6CCCN6C(=O)[C@H](NC(=O)OC)c6ccccc6)[nH]5)cc4)ccc3c2)[nH]1)C(C)C` [compound 138] and `CNC(=O)N[C@@H](C(=O)N1CCC[C@H]1c1ncc(-c2ccc3nc(-c4ccc(-c5cnc([C@@H]6CCCN6C(=O)[C@@H](NC(=O)OC)C(C)C)[nH]5)cc4)sc3c2)[nH]1)c1ccccc1` [compound 245] cannot be ordered by EC50: less than 1 nM for the first, less than 1 nM for the second.

`COC(=O)N[C@H](C(=O)N1CCC[C@H]1c1ncc(-c2ccc(-c3nc4ccc(-c5cnc([C@@H]6CCCN6C(=O)OCc6ccccc6)[nH]5)cc4s3)cc2)[nH]1)C(C)C` [compound 246] and `COC(=O)N[C@H](C(=O)N1CCC[C@H]1c1ncc(-c2ccc(-c3ccc4cc(-c5c[nH]c([C@@H]6CCCN6C(=O)[C@@H](NC(=O)OC)C6CCOCC6)n5)ccc4n3)cc2)[nH]1)C(C)C` [compound 39] cannot be ordered by EC50: less than 1 nM for the first, less than 1 nM for the second.

In the case of `COC(=O)N[C@H](C(=O)N1CCC[C@H]1c1nc(-c2ccc3cc(-c4ccc(-c5cnc([C@@H]6CCCN6C(=O)[C@H](NC(=O)OC)c6ccc(F)cc6)[nH]5)cc4)ccc3c2)c[nH]1)C1CCOCC1` [compound 111], the EC50 is reported as less than 1 nM.

Same assay, conditions: Hepatitis C virus; Table 2; genotype 1b replicon, Huh 7 cells, 72 h, luciferase; read-out: Inhibition of HCV genotype 1b

`CC[C@H](C)C(NC(=O)OC)C(=O)N1CCC[C@H]1c1nc2ccc(-c3ccc4cc(-c5cnc([C@@H]6CCCN6C(=O)[C@@H](NC(=O)OC)[C@@H](C)CC)[nH]5)ccc4c3)cc2[nH]1` (stereo partly shown) [compound 346] and `COC(=O)N[C@H](C(=O)N1CCC[C@H]1c1ncc(-c2ccc3nc(-c4ccc5nc([C@@H]6CCCN6C(=O)[C@@H](NC(=O)OC)[C@@H](C)OC)[nH]c5c4)ccc3c2)[nH]1)[C@@H](C)OC` [compound 386] cannot be ordered by EC50: less than 1 nM for the first, less than 1 nM for the second.

`CCC(CC)[C@H](NC(=O)OC)C(=O)N1CCC[C@H]1c1ncc(-c2ccc3nc(-c4ccc5nc([C@@H]6CCCN6C(=O)[C@@H](NC(=O)OC)C(CC)CC)[nH]c5c4)ccc3c2)[nH]1` [compound 382] and `COC(=O)N[C@H](C(=O)N1CCC[C@H]1c1ncc(-c2ccc3cc(-c4ccc(-c5cnc([C@@H]6CCCN6C(=O)[C@H](NC(=O)OC)c6ccsc6)[nH]5)cc4)ccc3c2)[nH]1)[C@@H](C)OC` [330-1] cannot be ordered by EC50: less than 1 nM for the first, less than 1 nM for the second.

Work on `COC(=O)N[C@H](C(=O)N1CCC[C@H]1c1ncc(-c2ccc3cc(-c4ccc(-c5cnc([C@@H]6CCCN6C(=O)[C@@H](NC(=O)OC)C6CCOCC6)[nH]5)nn4)ccc3c2)[nH]1)C1CCOCC1` [compound 314] yielded an EC50 of less than 1 nM.
